Each block holds one compound with its values, some of them ahead of it. Active and inactive are the calls of the source. No cut-off for these calls is given here.
Experiments:
[1] = Inhibition of full-length native sheep brain dynamin 1 assessed as reduction in PS liposomes-induced GTPase activity using 20 nM full-length dynamin 1; design: species or system Ovis aries
[2] = (§1) Ring stabilizer activity at full-length native sheep brain dynamin 1 assessed as stimulation of GTPase activity in absence of PS liposomes; design: species or system Ovis aries
Ovis aries [3] = species on record: Ovis aries; assay: Ring stabilizer activity at full-length native sheep brain dynamin 1 assessed as stimulation of GTPase activity in absence of PS liposomes and in presence of tween-80
[4] = Ring stabilizer activity at full-length native sheep brain dynamin 1 assessed as stimulation of GTPase activity in absence of PS liposomes using 200 nM full-length dynamin 1; design: species or system Ovis aries
[5] = Inhibition of full-length native sheep brain dynamin 1 assessed as reduction in PS liposomes-induced GTPase activity in absence of tween-80 using 7 nM full-length dynamin 1; design: species or system Ovis aries
[6] = Inhibition of full-length native sheep brain dynamin 1 assessed as reduction in PS liposomes-induced GTPase activity in presence of tween-80 using 7 nM full-length dynamin 1; design: species or system Ovis aries
Dynamin-2 (Homo sapiens) [7] = target: Dynamin-2 (Homo sapiens) (UniProt P50570); assay: Inhibition of Dynamin-2 in human lymphoblasts incubated for 30 mins by electron microscopic analysis
Ovis aries [8] = species on record: Ovis aries; assay: as §1
Dynamin-2 (Homo sapiens) [9] = target: T1, Dynamin-2 (Homo sapiens) (UniProt P50570); assay: Inhibition of Dynamin-2 in human lymphoblasts assessed as accumulation of clathrin coated pits at the plasma membrane incubated for 30 mins by electron microscopic analysis
T1 sequence (whole entry): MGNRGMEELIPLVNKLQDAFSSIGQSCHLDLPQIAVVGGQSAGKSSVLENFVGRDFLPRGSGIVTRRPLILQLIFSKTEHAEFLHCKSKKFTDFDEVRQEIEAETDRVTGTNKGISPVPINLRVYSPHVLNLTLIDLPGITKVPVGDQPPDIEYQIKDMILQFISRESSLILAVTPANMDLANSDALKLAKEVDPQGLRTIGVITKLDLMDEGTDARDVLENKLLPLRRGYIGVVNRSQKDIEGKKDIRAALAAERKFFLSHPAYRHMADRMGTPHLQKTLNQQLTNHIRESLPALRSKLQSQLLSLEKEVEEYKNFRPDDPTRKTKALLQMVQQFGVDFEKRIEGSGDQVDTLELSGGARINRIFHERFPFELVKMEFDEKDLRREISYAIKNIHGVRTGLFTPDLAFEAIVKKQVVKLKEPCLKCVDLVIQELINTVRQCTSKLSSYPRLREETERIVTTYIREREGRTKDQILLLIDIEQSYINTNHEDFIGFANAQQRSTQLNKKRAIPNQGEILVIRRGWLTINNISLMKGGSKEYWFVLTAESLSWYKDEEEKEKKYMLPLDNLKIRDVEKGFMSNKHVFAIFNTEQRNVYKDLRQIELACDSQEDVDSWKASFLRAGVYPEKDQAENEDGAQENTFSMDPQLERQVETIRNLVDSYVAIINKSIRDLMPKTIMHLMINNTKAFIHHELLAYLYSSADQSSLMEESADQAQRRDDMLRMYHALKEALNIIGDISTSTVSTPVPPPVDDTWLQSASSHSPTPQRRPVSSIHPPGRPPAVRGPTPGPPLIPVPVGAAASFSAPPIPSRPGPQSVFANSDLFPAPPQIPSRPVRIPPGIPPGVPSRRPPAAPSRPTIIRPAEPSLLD

Dynamin-1 (Homo sapiens) = target: T2, Dynamin-1 (Homo sapiens) (UniProt Q05193); assay: Ring stabilizer activity at recombinant dynamin 1 dimeric GG2 form (unknown origin) assessed as stimulation of GTPase activity using 200 to 1000 nM full-length dynamin
T2 sequence (whole entry): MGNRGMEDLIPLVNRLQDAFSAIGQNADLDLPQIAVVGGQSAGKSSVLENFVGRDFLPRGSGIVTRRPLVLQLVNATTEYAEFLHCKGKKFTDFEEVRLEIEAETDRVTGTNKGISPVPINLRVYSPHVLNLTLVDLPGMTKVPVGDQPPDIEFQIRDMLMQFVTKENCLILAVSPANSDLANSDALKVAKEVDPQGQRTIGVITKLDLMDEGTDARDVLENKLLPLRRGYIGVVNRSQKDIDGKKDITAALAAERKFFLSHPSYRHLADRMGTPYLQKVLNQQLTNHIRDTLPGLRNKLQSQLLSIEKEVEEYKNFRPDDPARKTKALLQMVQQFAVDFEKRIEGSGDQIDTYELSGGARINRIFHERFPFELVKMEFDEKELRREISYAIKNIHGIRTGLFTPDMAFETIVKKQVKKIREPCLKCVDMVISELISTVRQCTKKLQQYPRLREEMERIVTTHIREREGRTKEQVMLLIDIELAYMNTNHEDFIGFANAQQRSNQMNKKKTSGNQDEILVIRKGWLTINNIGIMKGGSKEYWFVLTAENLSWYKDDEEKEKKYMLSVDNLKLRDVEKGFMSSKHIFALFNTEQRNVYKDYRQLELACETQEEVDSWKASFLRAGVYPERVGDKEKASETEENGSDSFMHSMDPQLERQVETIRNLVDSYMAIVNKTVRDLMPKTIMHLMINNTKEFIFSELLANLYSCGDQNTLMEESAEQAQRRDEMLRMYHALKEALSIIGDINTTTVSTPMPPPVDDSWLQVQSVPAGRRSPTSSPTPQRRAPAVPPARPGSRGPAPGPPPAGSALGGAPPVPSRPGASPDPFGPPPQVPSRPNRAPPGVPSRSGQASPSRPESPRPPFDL

Ovis aries [10] = species on record: Ovis aries; assay: Inhibition of dis-assembly of pre-assembled full-length native sheep brain dynamin 1 pre-incubated in presence of PS liposomes followed compound addition at 5 uM and measured after 10 mins

Compound: N=c1oc2cc(O)c(O)cc2cc1C(=O)NCCCNC(=O)c1cc2cc(O)c(O)cc2oc1=N
IC50 [1]: 0.26 µM
EC50 [2]: 4 µM

Activity (Ovis aries [3]): Active
Compound: CCCCCCNC(=O)/C(C#N)=C/c1c(C)n(CCN(C)C)c2ccccc12

IC50 [1]: 0.33 µM
EC50 ([4]; read-out: EC50): 31 µM
Compound: N=c1oc2cc(O)c(O)cc2cc1C(=O)NCCNC(=O)c1cc2cc(O)c(O)cc2oc1=N

IC50 [5]: 22.1 µM
IC50 ([6]; read-out: IC50): 19.8 µM
Compound: O=C(N/N=C/c1cccc(O)c1O)c1cc2ccccc2cc1O

Activity (Ovis aries [3]): Active
Compound: CCCCCCCCCCNC(=O)/C(C#N)=C/c1cn(CCN(C)C)c2ccccc12

Compound: N=c1oc2cc(O)ccc2cc1C(=O)NCCCNC(=O)c1cc2ccc(O)cc2oc1=N
IC50 [1]: 17.3 µM
EC50 ([4]; read-out: EC50): 40 µM

IC50 [5]: 7.3 µM
IC50 ([6]; read-out: IC50): 200 µM
Compound: O=C(N/N=C/c1ccc(O)cc1O)c1cc2ccccc2cc1O

IC50 [5]: 3.1 µM
IC50 [6]: Not Active
Compound: O=C(N/N=C/c1ccc(O)c(O)c1O)c1cc2ccccc2cc1O

inhibition (Dynamin-2 (Homo sapiens) [7]): Active
Compound: CETRIMIDE

IC50 [5]: 4.4 µM
IC50 ([6]; read-out: IC50): 468 µM
Compound: O=C(N/N=C/c1cc(O)c(O)c(O)c1)c1cc2ccccc2cc1O

Compound: N=c1oc2c(O)cccc2cc1C(=O)NCCCNC(=O)c1cc2cccc(O)c2oc1=N
IC50 [1]: 36.6 µM
EC50 [4]: Not Active

Activity (Ovis aries [8]): Active
inhibition (Dynamin-2 (Homo sapiens) [9]): Active
Compound: O=C(N/N=C/c1ccc(O)c(O)c1)c1cc2ccccc2cc1O

Activity (Ovis aries [3]): Active
Compound: CCCCCCCCNC(=O)/C(C#N)=C/c1c(C)n(CCN(C)C)c2ccccc12

Compound: N=c1oc2c(O)c(O)ccc2cc1C(=O)NCCCNC(=O)c1cc2ccc(O)c(O)c2oc1=N
IC50 [1]: 0.45 µM
EC50 [2]: 1 µM
Activity (Dynamin-1 (Homo sapiens)): inactive

Activity (Ovis aries [3]): Active
Compound: CCCCCCCCCCCCCCCCCC[N+](C)(C)C

inhibition (Ovis aries [10]): Active
Activity (Ovis aries [8]): inactive
Activity (Ovis aries [3]): Active
Compound: CCCCCCCCNC(=O)/C(C#N)=C/c1cn(CCCN(C)C)c2ccccc12

Activity (Ovis aries [3]): Active
Compound: CCCCCCNC(=O)/C(C#N)=C/c1c(C)n(CCCN(C)C)c2ccccc12

IC50 [5]: 3.6 µM
IC50 ([6]; read-out: IC50): 1170 µM
Compound: COc1cc(/C=N/NC(=O)c2cc3ccccc3cc2O)c(O)cc1O

IC50 [5]: 39.8 µM
IC50 [6]: Not Active
Compound: O=C(N/N=C/c1cc(O)cc(O)c1)c1cc2ccccc2cc1O
